2 compounds from patent US10449128B2, “Fibrous support comprising particles containing a partially water-soluble active agent, particles, and methods for producing said particles” (priority 2014, dated 2019) can be followed below.

The nature of the data set: Solubility in water. Format: physicochemical. The source says: For the solid compounds, the solubility is defined as the percentage by weight of the compound in a solution at equilibrium with the solid phase at the above temperature T and a pressure of one atmosphere. For the liquid compounds (or solids in the pure state), the aqueous mixtures of which separate into two or more phases, the solubility taken into account is the percentage by weight of the specified compound in the water-rich liquid phase at equilibrium at the operating temperature (temperature at which said particles are manufactured (as the case may be, between 20 and 95° C.)) and a pressure of one atmosphere.

For the compound `CCCCN(CCC(=O)OCC)C(C)=O` [IR3535, ethyl 3-[acetyl(butyl)amino]propanoate, reference compound], the solubility in water result (at 20° C.) is “approximately 7 % by weight”. Compound `OC[C@@H](O)[C@H](O)[C@@H](O)CO` [xylitol] returned a solubility in water (at 25° C.) of 30 % by weight and a solubility in water (temperature not stated) of 39%.
